In one test the target is TBK1 (Homo sapiens (Human), UniProt Q9UHD2). As to the kind of experiment: TBK1 low ATP kinase assay (in vitro assay 1). Format: biochemical. To be noted: TBK1 low ATP kinase assay IC50, in vitro assay 1.
TBK1, sequence (Q9UHD2 whole entry): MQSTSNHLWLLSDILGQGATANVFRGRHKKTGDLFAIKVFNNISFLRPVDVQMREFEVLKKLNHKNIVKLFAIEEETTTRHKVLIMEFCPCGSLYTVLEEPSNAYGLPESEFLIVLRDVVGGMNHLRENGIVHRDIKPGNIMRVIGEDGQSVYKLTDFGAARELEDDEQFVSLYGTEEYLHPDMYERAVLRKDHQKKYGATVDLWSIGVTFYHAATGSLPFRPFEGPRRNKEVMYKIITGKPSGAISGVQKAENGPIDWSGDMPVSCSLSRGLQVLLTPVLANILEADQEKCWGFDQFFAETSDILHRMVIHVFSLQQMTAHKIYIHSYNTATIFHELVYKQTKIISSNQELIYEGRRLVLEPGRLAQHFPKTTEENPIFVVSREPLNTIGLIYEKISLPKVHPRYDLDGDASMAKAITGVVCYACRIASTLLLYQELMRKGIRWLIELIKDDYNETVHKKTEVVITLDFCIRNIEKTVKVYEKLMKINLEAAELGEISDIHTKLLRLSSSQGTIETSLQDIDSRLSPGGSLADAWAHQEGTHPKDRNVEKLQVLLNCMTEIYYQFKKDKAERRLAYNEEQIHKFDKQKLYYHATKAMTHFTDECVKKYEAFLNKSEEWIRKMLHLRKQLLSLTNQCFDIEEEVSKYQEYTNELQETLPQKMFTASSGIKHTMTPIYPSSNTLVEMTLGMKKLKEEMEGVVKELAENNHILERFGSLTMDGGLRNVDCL
Usually IC50 stands for the concentration that inhibits the measured activity by half. For `CC(C)Oc1cncnc1-c1ccc2nc(Nc3cc(C(C)N4CCN(C(=O)CC(F)(F)F)CC4)ccn3)[nH]c2c1` (single isomer, unassigned) [Example 36.02, 3,3,3-trifluoro-1-(4-{(1R or 1S)-1-[2-({6-[5-(propan-2-yloxy)pyrimidin-4-yl]-1H-benzimidazol-2-yl}amino)pyridin-4-yl]ethyl}piperazin-1-yl)propan-1-one], the IC50 was determined as 0.00196 µM.

Still in this test, the particulars now being: in vitro assay 1, read-out: TBK1 low ATP kinase assay IC50.
Take `COc1cncnc1-c1ccc2nc(Nc3cc(CN4CCN(S(=O)(=O)C5CC5)CC4)ccn3)[nH]c2c1` [Example 35.01.12, N-(4-{[4-(cyclopropylsulfonyl)piperazin-1-yl]methyl}pyridin-2-yl)-6-(5-methoxypyrimidin-4-yl)-1H-benzimidazol-2-amine]: the IC50 turned out to be 0.0324 µM. Take `CC(c1ccnc(Nc2nc3ccc(-c4cc(N5CC(C(F)(F)F)C5)ncn4)cc3[nH]2)c1)N1CCN(C(=O)[C@@H]2CC2(F)F)CC1` (single isomer, unassigned) [Example 164.05, ((1RS)-2,2-difluorocyclopropyl){4-[(1R or 1S)-1-[2-[(6-{6-[3-(trifluoromethyl)azetidin-1-yl]pyrimidin-4-yl}-1H-benzimidazol-2-yl)amino]pyridin-4-yl}ethyl]piperazin-1-yl}methanone]: the IC50 came to 0.000566 µM.

With `COCc1cc(-c2ccc3nc(Nc4cc(CN5CCN(C(=O)C6CC6)CC5)ccn4)[nH]c3c2)ncn1` [Example 79.02, cyclopropyl(4-{[2-({6-[6-(methoxymethyl)pyrimidin-4-yl]-1H-benzimidazol-2-yl}amino)pyridin-4-yl]methyl}piperazin-1-yl)methanone], the IC50 amounted to 0.0048 µM. On the same count and under the same terms, under `CC(c1ccnc(Nc2nc3ccc(-c4cnn(CC5CC5(F)F)c4)cc3[nH]2)c1)N1CCN(C(=O)OC(C)(C)C)CC1` (single isomer, unassigned) [Example 55.01, tert-butyl 4-[(1R or 1S)-1-(2-{[6-(1-{[(1RS)-2,2-difluorocyclopropyl]methyl}-1H-pyrazol-4-yl)-1H-benzimidazol-2-yl]amino}pyridin-4-yl)ethyl]piperazine-1-carboxylate] stands 0.00405 µM. The same measure, in the same setting: under `CC(c1ccnc(Nc2nc3ccc(-c4cc(C(F)(F)F)ncn4)c(F)c3[nH]2)c1)N1CCN(C(=O)CC(F)(F)F)CC1` (single isomer, unassigned) [Example 173.02, 3,3,3-trifluoro-1-(4-{(1R or 1S)-1-[2-({7-fluoro-6-[6-(trifluoromethyl)pyrimidin-4-yl]-1H-benzimidazol-2-yl}amino)pyridin-4-yl]ethyl}piperazin-1-yl)propan-1-one] stands 0.0771 µM; under `CN(C)c1cc(-c2ccc3nc(Nc4cc(CN5CCN(C(=O)C6CC6)CC5)ccn4)[nH]c3c2)ccn1` [Example 135.03, cyclopropyl(4-{[2-({6-[2-(dimethylamino)pyridin-4-yl]-1H-benzimidazol-2-yl}amino)pyridin-4-yl]methyl}piperazin-1-yl)methanone], 0.03 µM; under `COc1nc(Cl)cc(-c2ccc3nc(Nc4cc(CN5CCN(C(=O)OC(C)(C)C)CC5)ccn4)[nH]c3c2)n1` [Example 185.01, tert-butyl 4-[(2-{[6-(6-chloro-2-methoxypyrimidin-4-yl)-1H-benzimidazol-2-yl]amino}pyridin-4-yl)methyl]piperazine-1-carboxylate], 0.212 µM. `CC(c1ccnc(Nc2nc3ccc(-c4cc(N5CCCC5)ncn4)cc3[nH]2)c1)N1CCN(C(=O)C(C)(C)O)CC1` (single isomer, unassigned) [Example 117.07, 2-hydroxy-2-methyl-1-(4-{(1R or 1S)-1-[2-({6-[6-(pyrrolidin-1-yl)pyrimidin-4-yl]-1H-benzimidazol-2-yl}amino)pyridin-4-yl]ethyl}piperazin-1-yl)propan-1-one]: the IC50 amounted to 0.0027 µM. Regarding `Cc1noc(-c2ccc3nc(Nc4cc(CN5CCN(c6ccc(C#N)cc6)CC5)ccn4)[nH]c3c2)n1` [Example 101.18, 4-{4-[(2-{[6-(3-methyl-1,2,4-oxadiazol-5-yl)-1H-benzimidazol-2-yl]amino}pyridin-4-yl)methyl]piperazin-1-yl}benzonitrile], the IC50 turned out to be 1.5 µM.

As to `COc1cnccc1-c1ccc2nc(Nc3cc(CN4CCN(C(=O)C5CC5(F)F)CC4)ccn3)[nH]c2c1` (racemic) [Example 04.08, ((1RS)-2,2-difluorocyclopropyl){4-[(2-{[6-(3-methoxypyridin-4-yl)-1H-benzimidazol-2-yl]amino}pyridin-4-yl)methyl]piperazin-1-yl}methanone], the IC50 was found to be 0.0138 µM. Turning to `Cc1cc(-c2ccc3nc(Nc4cc(C(C)N5CCN(C(=O)C6CC6)CC5)ccn4)[nH]c3c2)n(C)n1` (single isomer, unassigned) [Example 89.03, cyclopropyl{4-[(1R or 1S)-1-(2-{[6-(1,3-dimethyl-1H-pyrazol-5-yl)-1H-benzimidazol-2-yl]amino}pyridin-4-yl)ethyl]piperazin-1-yl}methanone], the IC50 is 0.32 µM.

For `COc1c(-c2ccc3nc(Nc4cc(C(C)N5CCN(C(=O)CC(F)(F)F)CC5)ccn4)[nH]c3c2)ncnc1N1CCCC1` (single isomer, unassigned) [Example 112.03, 3,3,3-trifluoro-1-(4-{(1R or 1S)-1-[2-({6-[5-methoxy-6-(pyrrolidin-1-yl)pyrimidin-4-yl]-1H-benzimidazol-2-yl}amino)pyridin-4-yl]ethyl}piperazin-1-yl)propan-1-one], the IC50 was 0.0014 µM. The same measure, in the same setting: under `COCCCNc1cc(-c2ccc3nc(Nc4cc(CN5CCN(C(=O)CC(F)(F)F)CC5)ccn4)[nH]c3c2)ncn1` [Example 90.02, 3,3,3-trifluoro-1-[4-({2-[(6-{6-[(3-methoxypropyl)amino]pyrimidin-4-yl}-1H-benzimidazol-2-yl)amino]pyridin-4-yl}methyl)piperazin-1-yl]propan-1-one] stands 0.011 µM. Still for that read-out and setting: under `CN(C)c1ccnc(-c2ccc3nc(Nc4cc(CN5CCN(C(=O)C6CC6)CC5)ccn4)[nH]c3c2)n1` [Example 181.03, cyclopropyl(4-{[2-({6-[4-(dimethylamino)pyrimidin-2-yl]-1H-benzimidazol-2-yl}amino)pyridin-4-yl]methyl}piperazin-1-yl)methanone] stands 0.362 µM. Still for that read-out and setting: under `Cc1noc(-c2ccc3nc(Nc4cc(CN5C[C@@H](C)N(C(=O)CC(F)(F)F)C[C@@H]5C)ccn4)[nH]c3c2)n1` [Example 16.02.02, 1-{(2R,5S)-2,5-dimethyl-4-[(2-{[6-(3-methyl-1,2,4-oxadiazol-5-yl)-1H-benzimidazol-2-yl]amino}pyridin-4-yl)methyl]piperazin-1-yl}-3,3,3-trifluoropropan-1-one] stands 0.335 µM; under `Cc1noc(-c2ccc3nc(Nc4cc(CN5CCN(C(=O)C(C)(C)C)CC5)ccn4)[nH]c3c2)n1` [Example 16.01.06, 2,2-dimethyl-1-{4-[(2-{[6-(3-methyl-1,2,4-oxadiazol-5-yl)-1H-benzimidazol-2-yl]amino}pyridin-4-yl)methyl]piperazin-1-yl}propan-1-one], 0.208 µM.

`CN(C)c1cnc(-c2ccc3nc(Nc4cc(CN5CCN(C(=O)C6CC6)CC5)ccn4)[nH]c3c2)cn1` [Example 144.03, cyclopropyl(4-{[2-({6-[5-(dimethylamino)pyrazin-2-yl]-1H-benzimidazol-2-yl}amino)pyridin-4-yl]methyl}piperazin-1-yl)methanone]: the IC50 is 0.44 µM.

Consider `O=C(C1CC1)N1CCN(Cc2ccnc(Nc3nc4ccc(-c5ccnc(N6CCOCC6)c5)cc4[nH]3)c2)CC1` [Example 134.03, cyclopropyl(4-{[2-({6-[2-(morpholin-4-yl)pyridin-4-yl]-1H-benzimidazol-2-yl}amino)pyridin-4-yl]methyl}piperazin-1-yl)methanone], for which the IC50 is 0.019 µM. Turning to `Cc1cccc(-c2ccc3nc(Nc4cc(CN5CCN(C(=O)C6CC6)CC5)ccn4)[nH]c3c2)n1` [Example 12.02, cyclopropyl{4-[(2-{[6-(6-methylpyridin-2-yl)-1H-benzimidazol-2-yl]amino}pyridin-4-yl)methyl]piperazin-1-yl}methanone], the IC50 came out at 0.924 µM.

On to `CC(c1ccnc(Nc2nc3ccc(-c4ccncn4)cc3[nH]2)c1)N1CCN(C(=O)C2CCC2)CC1` (single isomer, unassigned) [Example 23.05.03.A, cyclobutyl{4-[(1R or 1S)-1-(2-{[6-(pyrimidin-4-yl)-1H-benzimidazol-2-yl]amino}pyridin-4-yl)ethyl]piperazin-1-yl}methanone], for which the IC50 is 0.00299 µM. On the same count and under the same terms, under `CN(C)c1cc(-c2ccc3nc(Nc4cc(CN5CCN(C(=O)OC(C)(C)C)CC5)ccn4)[nH]c3c2)ncn1` [Example 143.01, tert-butyl 4-{[2-({6-[6-(dimethylamino)pyrimidin-4-yl]-1H-benzimidazol-2-yl}amino)pyridin-4-yl]methyl}piperazine-1-carboxylate] stands 0.018 µM.

`CC(c1ccnc(Nc2nc3ccc(-c4ccncn4)cc3[nH]2)c1)N1CCN(C(=O)C2CC2)CC1` (single isomer, unassigned) [Example 23.05.01.B, cyclopropyl{4-[(1S or 1R)-1-(2-{[6-(pyrimidin-4-yl)-1H-benzimidazol-2-yl]amino}pyridin-4-yl)ethyl]piperazin-1-yl}methanone]: the IC50 is 0.0124 µM. The same measure, in the same setting: under `Cc1noc(-c2ccc3nc(Nc4cc(CN5CCN(c6ccc(F)c(F)c6)CC5)ccn4)[nH]c3c2)n1` [Example 101.21, N-(4-{[4-(3,4-difluorophenyl)piperazin-1-yl]methyl}pyridin-2-yl)-6-(3-methyl-1,2,4-oxadiazol-5-yl)-1H-benzimidazol-2-amine] stands > 57 µM; under `CC(c1ccnc(Nc2nc3ccc(-c4cnn(CC5CC(F)(F)C5)c4)cc3[nH]2)c1)N1CCN(C(=O)CC(F)(F)F)CC1` (single isomer, unassigned) [Example 169.02, 1-{4-[(1R or 1S)-1-{2-[(6-{1-[(3,3-difluorocyclobutyl)methyl]-1H-pyrazol-4-yl}-1H-benzimidazol-2-yl)amino]pyridin-4-yl}ethyl]piperazin-1-yl}-3,3,3-trifluoropropan-1-one], 0.0116 µM.

(Values after patent US10894784B2, “Heteroarylbenzimidazole compounds” (BAYER PHARMA AKTIENGESELLSCHAFT, priority 2015, dated 2021).)
